Assay results reported in patent publication US10945978B2, “Treatment and diagnosis of melanoma” (The Rockefeller University, priority 2012, dated 2021).
Counter-ions that a name gives are not always drawn.

Tests used:
[1] = system: MeWo human melanoma cells; test: Lung metastatic colonization by MeWo cells injected i.v. into NOD Scid mice; format: in vivo; details: for reduction in lung metastatic colonization: chow 20 mg/kg starting 10 days prior to cell injection
Procedure: Melanoma cells used for in vivo metastasis assays were transduced with a stably expressed retroviral construct encoding a luciferase reporter gene (Ponomarev et al., 2004), allowing us to monitor the in vivo progression of melanoma cells by bioluminescence imaging. The following numbers of melanoma cells, resuspended in 100 μL of PBS, were injected intravenously via the tail-vein: 4×10^4 MeWo cells, 2.5×10^5 HT-144 cells, 2×10^5 SK-Mel-334.2 cells, 5×10^4B16F10 cells, and 1×10^5 YUMM cells. The MeWo, HT-144, and SK-Mel-334.2 cells were injected into 6-8 week-old sex-matched NOD scid mice, while the B16F10 and YUMM cells were injected into 6-8 week-old sex-matched C57BL/6 mice. In all experiments assessing at the effects of GW3965 on metastasis formation, mice were pre-treated on a control diet or a GW3965-supplemented diet (20 mg/kg) for 10 days. To assess the effect of GW3965 treatment on brain metastasis, 1×10^5 MeWo brain-metastatic derivatives were injected intracardially into athymic nude mice. Immediately following injection, mice were randomly assigned to a control diet or GW3965-supplemented diet (100 mg/kg). To determine whether oral delivery of GW3965 can inhibit the progression of incipient metastasis, NOD Scid mice were intravenously injected with 4×10^4 MeWo cells and the cells were allowed to colonize the lungs for 42 days, after which mice were blindedly assigned to a control diet or a GW3965-supplemented diet (100 mg/kg) treatment.

MeWo cells = test: Orthotopic metastasis assay (lung colonization after tumor excision); format: in vivo, human; details: oral, 100 mg/kg for 1 month post-tumor excision
Procedure: To determine the effect of GW3965 treatment on lung colonization by melanoma cells dissociated from an orthotopic site, 1×10^6 MeWo cells expressing a luciferase reporter were subcutaneously injected into both lower flanks of NOD Scid mice. Upon the formation of tumors measuring ˜300 mm^3 in volume, the tumors were excised and the mice were randomly assigned to a control diet or a GW3965-supplemented diet (100 mg/kg) treatment. One month after tumor excision, the lungs were extracted and lung colonization was measured by ex vivo bioluminescence imaging. To histologically confirm the extent of melanoma lung colonization, lungs were then fixed in 4% PFA overnight, paraffin-embedded, section into […] increments and stained for human vimentin (VP-V684, Vector Laboratories).

[2] = system: SK-Mel-334.2 primary human melanoma line; test: Subcutaneous SK-Mel-334.2 tumor growth in immunocompromised mice; format: in vivo; details: oral, GW3965-supplemented diet
[3] = system: B16F10, MeWo and SK-Mel-334.2 cells; test: Overall survival of mice bearing subcutaneous melanoma tumors; format: in vivo, mouse; details: chow supplemented with GW3965 100 mg/kg after tumor establishment
[4] = system: MeWo human melanoma cells; test: Tumor histochemistry (MECA-32, Ki-67, cleaved caspase-3) of MeWo tumors; format: in vivo; details: GW3965 diet 20 mg/kg, 35 days
Text: Animals were intracardially perfused with PBS followed by 4% paraformaldehyde (PFA). Fixed lungs were embedded in paraffin and sectioned into 5-jam-thick increments. Macroscopic lung metastatic nodules were visualized by H&E staining. For analysis of tumor endothelial cell content, proliferation, and apoptosis, primary tumor paraffin-embedded sections were stained with antibodies against MECA-32 (Developmental Studies Hybridoma Bank, University of Iowa), KI-67 (ab15580, Abcam), and cleaved caspase-3 (9661, Cell Signaling), respectively.
Tumors were excised from mice and fixed in 4% paraformaldehyde at 4° C. for 48 hours. Then, tumors were paraffin-embedded and sectioned into 5-μm-thick increments. For endothelial cell content analysis in tumors, tumor sections were stained with a primary antibody against the mouse endothelial cell marker MECA-32 (Developmental Studies Hybridoma Bank, The University of Iowa, IA) and counterstained with DAPI nuclear stain. To determine tumor cell proliferation and apoptosis, tumor sections were stained with antibodies against the proliferative marker Ki-67 (Abcam, ab15580, Cambridge, Mass.) and the apoptotic marker cleaved caspase-3 (9661, Cell Signaling, Danvers, Mass.), respectively. Various Alexa Flour dye-conjugated secondary antibodies were used to detect primary antibodies. […] Endothelial cell content density and tumor proliferation rate were quantified by calculating the average percentage of MECA-32 or Ki-67 positively-staining area out of the total tumor area. Tumor apoptosis was measured by counting the number of cleaved caspase-3 expressing cells per given tumor area.

[5] = system: Tyr::CreER; B-RafV600E/+; Ptenlox/+ and Tyr::CreER; B-RafV600E/+; Ptenlox/lox mice; test: Genetically-initiated model of melanoma progression; format: in vivo, mouse
Procedure: The Tyr::CreER; B-Raf^V600E/+; Pten^lox/+/Tyr::CreER; B—Raf^V600E/+; Pten^lox/lox conditional model of melanoma progression was previously established and characterized by Dankort et al. (2009). Briefly, melanoma in these mice was induced at 6 weeks of age by intraperitoneally injecting 4-HT (H6278, 70% isomer, Sigma-Aldrich, St Louis, Mo.) at 25 mg/kg administered in peanut oil on three consecutive days. The 4-HT stock solution was prepared by dissolving it in 100% EtOH at 50 mg/mL by heating at 45° C. for 5 min and mixing. Once dissolved, the stock 4-HT solution was then diluted by 10-fold in peanut oil, yielding a 5 mg/mL 4-HT working solution that was then injected into mice. After the first 4-HT injection, mice were blindedly assigned to receive either a control diet or a diet supplemented with GW3965 (100 mg/kg). Mice were examined three times a week for the presence and progression of melanoma lesions. At day 35, dorsal skin samples were harvested from control-treated and GW3965-treated mice, fixed in 4% PFA and photographed at 10×. The percentage of pigmented melanoma lesion area out of the total skin area was quantified using ImageJ. For survival analyses, mice were monitored daily for melanoma progression and euthanized according to a standard body condition score, taking into account initial signs of moribund state and discomfort associated with the progression of melanoma burden. Post-mortem, the lungs, brains, and salivary glands were harvested and examined for the presence of macroscopic melanoma lesions.

[6] = system: SK-Mel-239 vemurafenib-resistant clone cells; test: SK-Mel-239 vemurafenib-resistant tumors in NOD Scid gamma mice; format: in vivo, human; details: GW3965 diet 100 mg/kg
endothelial cells = test: Endothelial recruitment by breast, renal cell and pancreatic cancer cells with ApoE; format: cell-based

O=C(O)Cc1cccc(OCCCN(Cc2cccc(C(F)(F)F)c2Cl)CC(c2ccccc2)c2ccccc2)c1 [GW3965 2, 3-[3-[N-(2-Chloro-3-trifluoromethylbenzyl)-(2,2-diphenylethyl)amino]propyloxy] phenylacetic acid hydrochloride]
survival times following metastatic colonization ([1]; GW3965-supplemented chow): significantly prolonged | suppression of colonization by incipient lung metastases ([1]; GW3965 diet 100 mg/kg from d42): 28 fold | number of macroscopic metastatic nodules ([1]; GW3965 diet 100 mg/kg from d42, lungs at d77): decreased | reduction in metastatic colonization capacity ([1]; cells pre-treated with GW3965 1 μM for 48 hours): more than 50 fold | in vivo melanoma metastasis (lung, bioluminescence) ([1]; chow containing GW3965 20 mg/kg, oral): significant reduction | reduction in lung metastatic colonization ([1]; oral): 31 fold | inhibition of lung colonization by disseminated melanoma cells (MeWo cells): 17 fold | tumor growth inhibition [2]: 73% | overall survival time [3]: substantially prolonged | decrease in the number of actively proliferating tumor cells ([4]; Ki-67): 23% | reduction in the endothelial cell content of tumors ([4]; MECA-32): roughly 2 fold | number of apoptotic cells ([4]; cleaved caspase-3): without a change | number of lymphatic metastases detected post-mortem ([5]; Ptenlox/lox mice, GW3965 100 mg/kg): decrease | tumor progression ([5]; oral, GW3965 diet 100 mg/kg after melanoma initiation): attenuated | overall survival times ([5]; oral, GW3965 diet 100 mg/kg, Ptenlox/+ and Ptenlox/lox): significantly extended | suppression of tumor growth [6]: 72% | survival of mice bearing vemurafenib-resistant melanoma burden [6]: significantly prolonged

O=S(=O)(c1ccccc1)N(CC(F)(F)F)c1ccc(C(O)(C(F)(F)F)C(F)(F)F)cc1 [T0901317 1]
reduction in lung metastatic colonization ([1]; oral): 23 fold

recombinant human ApoE: recombinant human ApoE3 (4696, BioVision)
endothelial recruitment (endothelial cells): inhibited
